Read-outs that look alike come from different tables or passages of the source.
How the values were obtained:
hEPO mRNA expression [1] = assay: Expression of hEPO after intravenous administration to rats; format: in vivo; settings: hEPO expression relative to MC3, S.D. rats, intravenous
Method: PBS (phosphate buffered saline) is used as control.
Formulations were prepared according to Table 5 and included mRNA encoding hEPO.
[…] After the 48 hour time point, livers and spleens were harvested and frozen.

hEPO mRNA expression [2] = assay: Expression of hEPO in mice (CD-1); format: in vivo, CD-1 mice; settings: hEPO expression relative to MC3, CD-1 mice
Source text: FIG. 12 is a set of graphs illustrating hEPO expression levels in CD-1 mice dosed with compounds of the disclosure, compared to MC3. PBS is used as control. […] In graphs A-C numbers 1-14 refer to compositions containing the following: 1: Compound 73, 2: Compound 80, 3: Compound 70; 4: Compound 81; 5: Compound 69; 6: Compound 82; 7: Compound 83; 8: Compound 62; 9: Compound 84; 10: Compound 85; 11: Compound 86; 12: Compound 87; 13: MC3; 14: PBS.
FIG. 13 is a graph showing hEPO levels (pg/mL) in CD-1 mice up to −25 h after administration of a nanoparticle composition containing compounds of the disclosure, compared to a composition containing MC3. Numbers 1-13 refer to compositions containing the following: 1: Compound 73, 2: Compound 80, 3: Compound 70; 4: Compound 81; 5: Compound 69; 6: Compound 82; 7: Compound 83; 8: Compound 62; 9: Compound 84; 10: Compound 85; 11: Compound 86; 12: Compound 87; 13: MC3. […]

[3] = Lipid levels (clearance) in liver and spleen 48 hours after administration; format: in vivo, rats; settings: for concentration at 48 h: Sprague-Dawley, rat, intravenous
Method: Formulations were administered intravenously to rats (n=3 or 6) at a dosage of 0.2 mg/kg or 0.5 mg/kg (mpk) and hEPO levels measured at 3, 6, and 24 hour time points. After the 48 hour time point, livers and spleens were harvested and frozen.
The amount of lipid in the liver and spleen 48 hours after administration of a nanoparticle composition was also measured. […] In contrast, approximately 60% of doses including MC3 or Compound 22 remained in the liver after 48 hours. Less than 3% of the dose remained in the spleen for each composition tested.

[4] = Particle size and polydispersity index (Zetasizer Nano ZS); format: physicochemical; settings: Table 1; DOPE 40:20:38.5:1.5, Luc mRNA
In short: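 Particle size and polydispersity index were measured by dynamic light scattering on a Zetasizer Nano ZS in 1×PBS. Zeta potential was measured in 15 mM PBS.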

[5] = system: luciferase (Luc) mRNA expression; assay: Expression of Luc in different organs (liver, lung, spleen, femur) 6 hours after intravenous administration; format: in vivo; settings: mice i.v. 0.5 mpk
Method: The efficacy of the nanoparticle compositions presented in Tables 1, la, 17-1, 19-1, 20-1 and 21-1 was further evaluated by measuring the expression of modified luciferase in the liver, lung, spleen, and femur upon administration of a given composition. Formulations were administered intravenously to mice (n=3) at a dosage of 0.5 mpk and bioluminescence measured after 6 hours. The standard MC3 formulation and a PBS control were also tested.

[6] = system: luciferase (Luc) mRNA expression; assay: Luc expression (AUC) in CD-1 mice relative to MC3; format: in vivo; settings: for Lipid/MC3 Luc CD-1 (mice): Luc expression relative to MC3, CD-1 mice; for Liver/Spleen Ratio / Lipid/MC3 AUC: Table 7c; for Lipid/MC3 AUC: AUC relative to MC3
Method: FIG. 15 is a graph summarizing luciferase expression levels at 6 h after administration of nanoparticle compositions containing compounds of the disclosure to CD-1 mice at a dose of 0.5 mpk. Total light flux values were acquired via body luminescent imaging (BLI) 6 h after administration. In this Figure, the numbers 1-7 and 10 refer to the compositions containing Compounds 4-10 and MC3 respectively.
In contrast, hEPO expression in rats induced by administration of nanoparticle composition including compound according to one of formulae (I), (Ia1)-(Ia6), (Ib), (II), (IIa), (III), and (IIIa) was substantially lower than that measured for MC3. […] Table 7c and 7d show additional protein expressions and clearance data from compositions with various compounds disclosed herein as compared to with MC3.

[7] = Lipid clearance: % dose remaining in mice (liver) 6 h and 24 h after administration of nanoparticle compositions; format: in vivo, CD-1 mice; settings: Table 7c, species not given

% Dose Remaining 24 hr [7] [%]	SMILES	Liver/Spleen Ratio [6]	Lipid/MC3 AUC [6]	further results
	CCCCCCCCCCCCN(CCCCCCCCCCCC)CCN(CCCCCCCCCCCC)CCN1CCN(CCN(CCCCCCCCC)CCCCCCCCC)CC1 [23 (DOPE)]			Lipid/MC3 hEPO S.D. (rats) (hEPO mRNA expression [1]): 0.21; Lipid/MC3 hEPO CD-1 (mice) (hEPO mRNA expression [2]): 2.4; concentration at 48 h ([3]; liver, 48 hours after administration, read-out: Lipid in liver): 32900 ng/g; concentration at 48 h ([3]; spleen, 48 hours after administration, read-out: Lipid in spleen): 26100 ng/g; % remaining dose in liver ([3]; liver, 48 hours after administration): 51.4%; % remaining dose in spleen ([3]; spleen, 48 hours after administration): 2.72%
	CCCCCCCCCCCCCCN(CCCCCCCCCCCCCC)CCN1CCN(CCN(CCCCCCCCC)CCN(CCCCCCCCC)CCCCCCCCC)CC1 [Compound 20, N^1-(2-(4-(2-(Ditetradecylamino)ethyl)piperazin-1-yl)ethyl)-N^1,N^2,N^2-trinonylethane-1,2-diamine]			PDI [4]: 0.150; Total flux in organs, comparison in words over the organs of the table named [5]: highest total flux; Lipid/MC3 Luc CD-1 (mice) [6]: 5.0
	CCCCC/C=C\C/C=C\CCCCCCCCC1(CCCCCCCC/C=C\C/C=C\CCCCC)CC(OC(=O)CCCN(C)C)C1 [Compound 21-2, 3,3-Di((9Z,12Z)-octadeca-9,12-dien-1-yl)cyclobutyl 4-(dimethylamino)butanoate]			Total flux in organs, comparison in words over the organs of the table named [5]: lowest expression in each organ
	CCCCC/C=C\C/C=C\CCCCCCCCC1(CCCCCCCC/C=C\C/C=C\CCCCC)CCC(OC(=O)CCCN(C)C)C1 (stereo not drawn) [Compound 21-4, 3,3-Di((9Z,12Z)-octadeca-9,12-dien-1-yl)cyclopentyl 4-(dimethylamino)butanoate]			Total flux in organs, comparison in words over the organs of the table named [5]: lowest expression in each organ
	CCCCCCCCCN(CCCCCCCCC)CCN(CCCCCCCCC)CC(=O)N1CCN(C(=O)CN(CCCCCCCCC)CCCC(=O)OCCCCC)CC1 [Compound 45, Pentyl 4-((2-(4-(N-(2-(dinonylamino)ethyl)-N-nonylglycyl)piperazin-1-yl)-2-oxoethyl)(nonyl)amino)butanoate]			PDI [4]: 0.200; Lipid/MC3 Luc CD-1 (mice) [6]: 6.50; % dose remaining Rat liver (48 h) [3]: 8.57%
	CCCCCCCCCN(CCCCCCCCC)CCC1CCN(C(=O)CN(CCCCCCCCC)CCN(CCCCCCCCC)CCCCCCCCC)CC1 [Compound 49, 2-((2-(Dinonylamino)ethyl)(nonyl)amino)-1-(4-(2-(dinonylamino)ethyl)piperidin-1-yl)ethan-1-one]			PDI [4]: 0.200; Lipid/MC3 Luc CD-1 (mice) [6]: 5.23; % dose remaining Rat liver (48 h) [3]: 38.45%
0.77	CCCCCCCCCN(CCCCCCCCC)CCN(CCCCCCCCC)CC(=O)N1CCN(C(=O)CN(CCCCCCCCC)CCCCCCC(=O)OCC)CC1 [Compound 53, Ethyl 7-((2-(4-(N-(2-(dinonylamino)ethyl)-N-nonylglycyl)piperazin-1-yl)-2-oxoethyl)(nonyl)amino)heptanoate]	17	0.07	
1.60	CCCCCCCCCN(CCCCCCCCC)CCN(CCCCCCCCC)CC(=O)N1CCN(C(=O)CN(CCCCCCCCC)CCCCC(=O)OCCCC)CC1 [Compound 55, Butyl 5-((2-(4-(N-(2-(dinonylamino)ethyl)-N-nonylglycyl)piperazin-1-yl)-2-oxoethyl)(nonyl)amino)pentanoate]	9	0.14	
0.16	CCCCCCCCCN(CCCCCCCCC)CCN(CCCCCCCCC)CC(=O)N1CCN(C(=O)CN(CCCCCCCCC)CCCOC(=O)CCCCC)CC1 [Compound 56, 3-((2-(4-(N-(2-(Dinonylamino)ethyl)-N-nonylglycyl)piperazin-1-yl)-2-oxoethyl)(nonyl)amino)propyl Hexanoate]	29	1.25	
0.24	CCCCCCCCCN(CCCCCCCC(=O)OC)CCC1CCN(C(=O)CN(CCCCCCCCC)CCN(CCCCCCCCC)CCCCCCCCC)CC1 [Compound 57, Methyl 8-((2-(1-(N-(2-(dinonylamino)ethyl)-N-nonylglycyl)piperidin-4-yl)ethyl)(nonyl)amino)octanoate]	15	0.85	% Dose Remaining 6 hr ([7]; 6 hr): 0.88%
0.61	CCCCCCCCCN(CCCCCCC(=O)OCC)CCC1CCN(C(=O)CN(CCCCCCCCC)CCN(CCCCCCCCC)CCCCCCCCC)CC1 [Compound 58, Ethyl 7-((2-(1-(N-(2-(dinonylamino)ethyl)-N-nonylglycyl)piperidin-4-yl)ethyl)(nonyl)amino)heptanoate]	11	0.97	
0.13	CCCCCCCCCN(CCCOC(=O)CCCCC)CCC1CCN(C(=O)CN(CCCCCCCCC)CCN(CCCCCCCCC)CCCCCCCCC)CC1 [Compound 61, 3-((2-(1-(N-(2-(Dinonylamino)ethyl)-N-nonylglycyl)piperidin-4-yl)ethyl)(nonyl)amino)propyl Hexanoate]	30	3.27	
6.40	CCCCCCCCCN(CCCCCCCCC)CCN(CCCCCCCCC)CC(=O)N1CCN(C(=O)CN(CCCC(=O)OCCCCC)CCCC(=O)OCCCCC)CC1 [Compound 72, Dipentyl 4,4′-((2-(4-(N-(2-(dinonylamino)ethyl)-N-nonylglycyl)piperazin-1-yl)-2-oxoethyl)azanediyl)dibutyrate]	6	0.46	

— patent US12396961B2, “Compounds and compositions for intracellular delivery of agents” (ModernaTX, Inc., priority 2015, dated 2025)
